Assay results from patent US20220380318A1, “SUBSTITUTED SULFONYL AMIDES FOR CONTROLLING ANIMAL PESTS” (Bayer Aktiengesellschaft, priority 2019, published 2022).

What was measured:
Type in all cases: in vivo
Meloidogyne incognita [1] = assay: Meloidogyne incognita test (sand, acetone formulation, gall formation after 14 days); settings: 336 h, application rate 4 ppm, lettuce in sand, read-out: nematicidal efficacy in % (formation of galls)
Description: Meloidouyne incognita Test Solvent: 125.0 parts by weight of acetone To produce an appropriate active ingredient formulation, 1 part by weight of active ingredient is mixed with the stated amount of solvent and the concentrate is diluted to the desired concentration with water. Vessels are filled with sand, active ingredient solution, an egg/larvae suspension of the southern root-knot nematode (Meloidogyne incognita) and lettuce seeds. The lettuce seeds germinate and the plants develop. The galls develop on the roots. After 14 days, the nematicidal efficacy in % is determined by the formation of galls. 100% means that no galls were found; 0% means that the number of galls on the treated plants corresponds to the untreated control.

Meloidogyne incognita [2] = assay: Meloidogyne incognita test (soil drench, gall formation after 21 days); settings: 504 h, lettuce, read-out: nematicidal efficacy in % (formation of galls); for pest or weed control at 0.125 ppm: application rate 0.125 ppm; for pest or weed control at 0.25 ppm: application rate 0.25 ppm; for pest or weed control at 1 ppm: application rate 1 ppm
Description: (§1) Meloidogyne incognita Test Solvent: 7 parts by weight of dimethylformamide Emulsifier: 2.5 parts by weight of alkylaryl polyglycol ether To produce a suitable active ingredient formulation, 1 part by weight of active ingredient is mixed with the specified amounts of solvent and emulsifier, and the concentrate is diluted with water to the desired concentration, it being necessary to take account of the volume of soil which is drenched. It should be ensured that a concentration of 20 ppm of emulsifier in the soil is not exceeded. To produce further test concentrations, water is used for dilution. Pots filled with soil (loamy sand) are watered with the active ingredient solution. An egg/larvae suspension of the southern root-knot nematode (Meloidogyne incognita) is added, lettuce seeds are scattered over the surface of the soil, and they are covered over with quartz sand. The lettuce seeds germinate and the plants develop. The galls develop on the roots. After 21 days, the nematicidal efficacy in % is determined by the formation of galls. 100% means that no galls have been found; 0% means that the number of galls on the treated plants corresponds to the untreated control.

Meloidogyne incognita [3] = assay: Meloidogyne incognita test (MELGIN), comparison with prior art; settings: 504 h, after 21 days
Description: as §1, with “Test (MELGIN)” for “Test”

Heterodera pallida = Heterodera pallida - soil mixing test (HETDPA); settings: Globodera pallida, 1008 h, cysts on potato roots after six weeks, Abbott formula, read-out: % Efficacy
Description: Heterodera pallida-Soil Mixing Test ([…]) Solvent: 4 parts by weight of acetone Emulsifier: 1 part by weight of alkylaryl polyglycol ether To produce a suitable preparation of active ingredient, 1 part by weight of active ingredient is mixed with the stated amounts of solvent and emulsifier, and the concentrate is diluted with water to the desired concentration. This active ingredient formulation is mixed with soil (loamy sand). The stated concentration refers to the amount of active ingredient per volume unit of soil (ppm=mg/l). 40 cysts of the white potato nematode (Heterodera pallida, 250-275 larvae/cysts) are introduced into 500 ml of this active ingredient soil and mixed. The mixture is introduced into pots and planted in each case with a one-week-old potato seedling (Solanum tuberosum). After six weeks, the potato roots are checked for cysts and the average number per pot is calculated as efficacy by the Abbott formula: [formula] B=treated plants K=untreated control plants

Row | Structure (SMILES) | pest or weed control at 4 ppm (Meloidogyne incognita [1]) [%] | pest or weed control at 0.125 ppm (Meloidogyne incognita [2]) [%] | pest or weed control at 0.25 ppm (Meloidogyne incognita [2]) [%] | pest or weed control at 1 ppm (Meloidogyne incognita [2]) [%] | further results
1 | O=C(NS(=O)(=O)c1cc(OCC(F)F)ccc1Cl)c1nc(Br)n([C@@H]2C[C@H]2C(F)(F)F)c1Br (racemic) [I-10] | 100 | 100 | – | – | –
2 | COc1ccc(Cl)c(S(=O)(=O)NC(=O)c2nc(Br)n([C@H]3C[C@@H]3C(F)(F)F)c2Br)c1 (racemic) [I-06] | 100 | 100 | 100 | 100 | Emax at 0.015625 ppm (Meloidogyne incognita [3]; read-out: % Efficacy): 65%; nematicidal efficacy (% gall reduction) at 0.03125 ppm (Meloidogyne incognita [3]): 92.5%
3 | Cc1ccccc1S(=O)(=O)NC(=O)c1nc(Br)n([C@H]2C[C@@H]2C(F)(F)F)c1Br (racemic) [I-08] | 100 | – | 100 | 100 | –
4 | COc1ccc(Br)c(S(=O)(=O)NC(=O)c2nc(Br)n([C@H]3C[C@@H]3C(F)(F)F)c2Br)c1 (racemic) [I-07] | 100 | 100 | 100 | 100 | Emax at 0.03125 ppm (Meloidogyne incognita [3]; read-out: % Efficacy): 90%; nematicidal efficacy (% gall reduction) at 0.0625 ppm (Meloidogyne incognita [3]; 0.0625 ppm): 100%; nematicidal efficacy (% gall reduction) at 0.125 ppm (Meloidogyne incognita [3]): 100%
5 | Cc1ccccc1S(=O)(=O)NC(=O)c1nc(Cl)n([C@H]2C[C@@H]2C(F)(F)F)c1Br (racemic) [I-03] | 100 | 90 | 100 | 100 | –
6 | COc1ccc(Cl)c(S(=O)(=O)NC(=O)c2nc(Cl)n([C@@H]3C[C@H]3C(F)(F)F)c2Cl)c1 [Ex. I-470, reference compound] | – | – | – | – | Emax at 0.015625 ppm (Meloidogyne incognita [3]; read-out: % Efficacy): 0%; nematicidal efficacy (% gall reduction) at 0.03125 ppm (Meloidogyne incognita [3]): 48%; Emax at 0.25 ppm (Heterodera pallida): 0%; Emax at 0.5 ppm (Heterodera pallida): 0%; Emax at 1 ppm (Heterodera pallida): 70%
7 | CCOc1ccc(Cl)c(S(=O)(=O)NC(=O)c2nc(Cl)n([C@H]3C[C@@H]3C(F)(F)F)c2Br)c1 (racemic) [I-04] | 100 | 90 | 100 | 100 | nematicidal efficacy (% gall reduction) at 0.03125 ppm (Meloidogyne incognita [3]): 97%
8 | O=C(NS(=O)(=O)c1ccccc1Cl)c1nc(Br)n([C@@H]2C[C@H]2C(F)(F)F)c1Cl (racemic) [I-13] | 100 | – | – | 80 | nematicidal efficacy (% gall reduction) at 0.5 ppm (Meloidogyne incognita [3]): 70%
9 | O=C(NS(=O)(=O)c1cc(OCC(F)F)ccc1Cl)c1nc(Cl)n([C@@H]2C[C@H]2C(F)(F)F)c1Br (racemic) [I-11] | 100 | 98 | – | – | –
10 | COc1ccc(Cl)c(S(=O)(=O)NC(=O)c2nc(Br)n([C@H]3C[C@@H]3C(F)(F)F)c2Cl)c1 (racemic) [I-12] | 100 | 100 | – | – | nematicidal efficacy (% gall reduction) at 0.125 ppm (Meloidogyne incognita [3]): 100%
11 | COc1ccc(Br)c(S(=O)(=O)NC(=O)c2nc(Cl)n([C@H]3C[C@@H]3C(F)(F)F)c2Br)c1 (racemic) [I-05] | 100 | 100 | 100 | 100 | –
12 | CCOc1ccc(Cl)c(S(=O)(=O)NC(=O)c2nc(Br)n([C@H]3C[C@@H]3C(F)(F)F)c2Br)c1 (racemic) [I-09] | 100 | 90 | 100 | 100 | –
13 | O=C(NS(=O)(=O)c1cc(Cl)ccc1Cl)c1nc(Cl)n([C@H]2C[C@@H]2C(F)(F)F)c1Br (racemic) [I-02] | 100 | 90 | 90 | 100 | –
14 | COc1ccc(Cl)c(S(=O)(=O)NC(=O)c2nc(Cl)n([C@H]3C[C@@H]3C(F)(F)F)c2Br)c1 (racemic) [I-01] | 100 | 90 | 97 | 100 | Emax at 0.015625 ppm (Meloidogyne incognita [3]; read-out: % Efficacy): 58.3%; nematicidal efficacy (% gall reduction) at 0.03125 ppm (Meloidogyne incognita [3]): 95%; Emax at 0.25 ppm (Heterodera pallida): 75%; Emax at 0.5 ppm (Heterodera pallida): 90%; Emax at 1 ppm (Heterodera pallida): 100%
15 | CCOc1ccc(Cl)c(S(=O)(=O)NC(=O)c2nc(Cl)n([C@@H]3C[C@H]3C(F)(F)F)c2Cl)c1 [Ex. I-459, reference compound] | – | – | – | – | nematicidal efficacy (% gall reduction) at 0.03125 ppm (Meloidogyne incognita [3]): 10%
16 | O=C(NS(=O)(=O)c1ccccc1Cl)c1nc(Br)n(CCC(F)(F)F)c1Cl [Ex. I-440, reference compound] | – | – | – | – | nematicidal efficacy (% gall reduction) at 0.125 ppm (Meloidogyne incognita [3]): 0%; nematicidal efficacy (% gall reduction) at 0.5 ppm (Meloidogyne incognita [3]): 0%
17 | COc1ccc(Br)c(S(=O)(=O)NC(=O)c2nc(Cl)n([C@@H]3C[C@H]3C(F)(F)F)c2Cl)c1 [Ex. I-465, reference compound] | – | – | – | – | Emax at 0.03125 ppm (Meloidogyne incognita [3]; read-out: % Efficacy): 0%; Emax at 0.0625 ppm (Meloidogyne incognita [3]; 0.0625 ppm, read-out: % Efficacy): 25%; nematicidal efficacy (% gall reduction) at 0.125 ppm (Meloidogyne incognita [3]): 95%
